Measurements reported in patent publication US9271978B2 (Zenith Epigenetics Corp., priority 2012, dated 2016).

Key:
[1] = biological target: T1, Brd4 bromodomain 1 (BRD4(1)) (Homo sapiens, UniProt O60885); assay: Inhibition of tetra-acetylated histone H4 binding to Brd4 bromodomain 1 (TR-FRET); parameters: key: Active: Compounds with an IC50 value less than 30 μM were deemed to be active.; Not Active: Compounds with an IC50 value less than 30 μM were deemed to be active; conditions: tetra-acetylated histone H4 peptide, active = IC50 <30 μM
T1 construct: Illustrative results with the first bromodomain of Brd4; made in house; host or cells: E. coli BL21 (DE3)
In short: (§1)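 IC50 values come from dose-response curves of the 665 nm to 620 nm TR-FRET signal decrease, measured after 2 h at room temperature. Reactions contained 200 nM E. coli-expressed His-tagged bromodomain, 25-50 nM biotinylated tetra-acetylated H4 peptide, Eu-streptavidin plus XL665 anti-His antibody, with 30 mM HEPES pH 7.4, 320 mM KF and 0.2% DMSO.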

[2] = biological target: T2, second bromodomain of Brd2 (BRD2(2)) (Homo sapiens, UniProt P25440); assay: Inhibition of tetra-acetylated histone H4 binding to Brd2 bromodomain 2 (TR-FRET); parameters: key: Active: Compounds with an IC50 value less than 30 μM were deemed to be active.; Not Active: Compounds with an IC50 value less than 30 μM were deemed to be active; conditions: tetra-acetylated histone H4 peptide, active = IC50 <30 μM
T2 construct: made in house; host or cells: E. coli BL21 (DE3)
In short: as §1

c-myc = assay: Inhibition of c-myc expression in MV4-11 cells (mRNA, real-time PCR); format: cell-based; parameters: key: Active: Compounds with an IC50 value less than 30 μM were deemed to be active.; Not Active: Compounds with an IC50 value less than 30 μM were deemed to be active; conditions: Human AML MV4-11 cells, 3 h incubation
In short: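 Duplex RT-qPCR of c-myc against cyclophilin cDNA gave IC50 from a dose–response curve. Input was isolated mRNA from 2.5×10^4 MV4-11 cells after 3 h exposure at 37 °C to compound or 0.1% DMSO vehicle.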

[3] = tested on: human AML MV-4-11 (CRL-9591) cells; assay: Inhibition of cell proliferation in MV4-11 cells; format: cell-based; parameters: key: Active: Compounds with an IC50 value less than 30 μM were deemed to be active.; Not Active: Compounds with an IC50 value less than 30 μM were deemed to be active; conditions: human AML MV-4-11 cells, 72 h; active = IC50 <30 μM
In short: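 IC50 values come from blank-corrected proliferation relative to DMSO controls, read as 490 nm absorbance 3–4 h after CellTiter Aqueous One addition. Before that, cells seeded at 5×10^4/well were exposed for 72 h (37° C, 5% CO2) to triplicate two-fold compound dilutions spanning 30–0.2 μM.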

hIL-6 mRNA = assay: Inhibition of hIL-6 mRNA transcription in U937 cells; format: cell-based, human; parameters: key: Active: Compounds with an IC50 value less than 30 μM were deemed to be active.; Not Active: Compounds with an IC50 value less than 30 μM were deemed to be active; conditions: LPS stimulation, active = IC50 <30 μM
In short: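 Readout is one-step real-time PCR of hIL-6 mRNA, normalized to an internal control and given as fold induction versus control. Cells: PMA (60 ng/mL, 3 days)-differentiated U937 macrophages, compound added 1 h before 1 ug/mL LPS, harvested after 3 h at 37° C.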

ApoA-I mRNA = assay: Up-regulation of hApoA-1 mRNA transcription in Huh7 cells; format: cell-based, human; parameters: key: Active: Compounds with an EC170 value less than 30 μM were deemed to be active; conditions: 48 h treatment, ApoA-I mRNA by real-time PCR, Active = EC170 less than 30 μM
In short: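 Huh7 cells treated with compound for 48 h. ApoA-I mRNA was then quantified in captured mRNA by one-step real-time RT-PCR. Fold induction calculated from Ct values relative to the matching DMSO control; EC170 is the concentration for 170% of control expression.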

T2 sequence (P25440 344-453 limits assumed): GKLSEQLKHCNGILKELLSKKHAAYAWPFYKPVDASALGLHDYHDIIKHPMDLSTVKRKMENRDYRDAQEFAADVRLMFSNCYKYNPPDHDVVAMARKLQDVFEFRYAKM

Cc1noc(C)c1-c1ccc(=O)n(C(C)c2ccccc2)n1 (stereo not shown) [Example 19, 6-(3,5-Dimethylisoxazol-4-yl)-2-(1-phenylethyl)pyridazin-3(2H)-one]
Active: FRET activity (IC50 <30 μM) BRD4(1) [1] | FRET activity (IC50 <30 μM) BRD2(2) [2] | c-myc activity (IC50 <30 μM) (c-myc) | Cell Proliferation activity (IC50 <30 μM) [3] | IL-6 activity (IC50 <30 μM) (hIL-6 mRNA) | ApoA-1 activity (EC170 <30 μM) (ApoA-I mRNA)

Cc1noc(C)c1-c1cc(C)c(=O)n(Cc2ccccc2)c1 [Example 66, 1-Benzyl-5-(3,5-dimethylisoxazol-4-yl)-3-methylpyridin-2(1H)-one]
Active: FRET activity (IC50 <30 μM) BRD4(1) [1] | FRET activity (IC50 <30 μM) BRD2(2) [2] | c-myc activity (IC50 <30 μM) (c-myc) | Cell Proliferation activity (IC50 <30 μM) [3] | IL-6 activity (IC50 <30 μM) (hIL-6 mRNA) | ApoA-1 activity (EC170 <30 μM) (ApoA-I mRNA)

COc1ccccc1Cn1cc(-c2c(C)noc2C)ccc1=O [Example 162, 5-(3,5-Dimethylisoxazol-4-yl)-1-(2-methoxybenzyl)pyridin-2(1H)-one]
Active: FRET activity (IC50 <30 μM) BRD4(1) [1] | FRET activity (IC50 <30 μM) BRD2(2) [2] | c-myc activity (IC50 <30 μM) (c-myc) | Cell Proliferation activity (IC50 <30 μM) [3] | IL-6 activity (IC50 <30 μM) (hIL-6 mRNA) | ApoA-1 activity (EC170 <30 μM) (ApoA-I mRNA)

Cc1noc(C)c1-c1ccc(=O)n([C@H](C)c2ccccc2)n1 [Example 108, (R)-6-(3,5-Dimethylisoxazol-4-yl)-2-(1-phenylethyl)pyridazin-3(2H)-one]
Active: FRET activity (IC50 <30 μM) BRD4(1) [1] | FRET activity (IC50 <30 μM) BRD2(2) [2] | c-myc activity (IC50 <30 μM) (c-myc) | Cell Proliferation activity (IC50 <30 μM) [3] | IL-6 activity (IC50 <30 μM) (hIL-6 mRNA) | ApoA-1 activity (EC170 <30 μM) (ApoA-I mRNA)

Cc1noc(C)c1-c1cc(N)c(=O)n(Cc2ccc(C#N)cc2)c1 [Example 216, 4-((3-amino-5-(3,5-dimethylisoxazol-4-yl)-2-oxopyridin-1(2H)-yl)methyl)benzonitrile]
Active: FRET activity (IC50 <30 μM) BRD4(1) [1] | c-myc activity (IC50 <30 μM) (c-myc) | Cell Proliferation activity (IC50 <30 μM) [3] | IL-6 activity (IC50 <30 μM) (hIL-6 mRNA) | ApoA-1 activity (EC170 <30 μM) (ApoA-I mRNA)

Cc1noc(C)c1-c1cc(N)c(=O)n(Cc2ccc(Cl)c(F)c2)c1 [Example 203, 3-amino-1-(4-chloro-3-fluorobenzyl)-5-(3,5-dimethylisoxazol-4-yl)pyridin-2(1H)-one]
Active: FRET activity (IC50 <30 μM) BRD4(1) [1] | c-myc activity (IC50 <30 μM) (c-myc) | Cell Proliferation activity (IC50 <30 μM) [3] | IL-6 activity (IC50 <30 μM) (hIL-6 mRNA) | ApoA-1 activity (EC170 <30 μM) (ApoA-I mRNA)

Cc1onc(CO)c1-c1cc(N)c(=O)n(Cc2ccc(Cl)cc2)c1 [Example 205, 3-Amino-1-(4-chlorobenzyl)-5-(3-(hydroxymethyl)-5-methylisoxazol-4-yl)pyridin-2(1H)-one]
Active: FRET activity (IC50 <30 μM) BRD4(1) [1] | c-myc activity (IC50 <30 μM) (c-myc) | Cell Proliferation activity (IC50 <30 μM) [3] | IL-6 activity (IC50 <30 μM) (hIL-6 mRNA) | ApoA-1 activity (EC170 <30 μM) (ApoA-I mRNA)

Cc1noc(C)c1-c1cc(N)c(=O)n(Cc2ccc(Cl)s2)c1 [Example 222, 3-amino-1-((5-chlorothiophen-2-yl)methyl)-5-(3,5-dimethylisoxazol-4-yl)pyridin-2(1H)-one]
Active: FRET activity (IC50 <30 μM) BRD4(1) [1] | c-myc activity (IC50 <30 μM) (c-myc) | Cell Proliferation activity (IC50 <30 μM) [3] | IL-6 activity (IC50 <30 μM) (hIL-6 mRNA) | ApoA-1 activity (EC170 <30 μM) (ApoA-I mRNA)

Cc1noc(C)c1-c1cc(OCc2ccccc2)c(=O)n(Cc2ccccc2)c1 [Example 191, 1-benzyl-3-(benzyloxy)-5-(3,5-dimethylisoxazol-4-yl)pyridin-2(1H)-one]
Active: FRET activity (IC50 <30 μM) BRD4(1) [1] | c-myc activity (IC50 <30 μM) (c-myc) | Cell Proliferation activity (IC50 <30 μM) [3] | ApoA-1 activity (EC170 <30 μM) (ApoA-I mRNA)
Not Active: IL-6 activity (IC50 <30 μM) (hIL-6 mRNA)
